This note sets out measurements from patent US7547679B2, “Ether linked macrolides useful for the treatment of microbial infections” (GlaxoSmithKline istrazivacki center Zagreb d.o.o, priority 2005, dated 2009).

Holding throughout (format): cell-based
The test system of one experiment is M. catarrhalis. Put plainly: MIC, microtiter broth serial dilution test, M. catarrhalis. The conditions noted are these: Moraxella catarrhalis; read-out: MIC against M. catarrhalis.
In experiment [1] the test system is erythromycin resistant strain of Streptococcus pyogenes. Put plainly: MIC, microtiter broth serial dilution test, erythromycin resistant S. pyogenes. Particulars: read-out: MIC against erythromycin resistant strain of Streptococcus pyogenes.
The subject of a further experiment is E. faecalis. Briefly: MIC, microtiter broth serial dilution test, E. faecalis. The conditions noted are these: Enterococcus faecalis; read-out: MIC against E. faecalis.
Experiment [2] concerns erythromycin resistant strain of Streptococcus pneumoniae. Put plainly: MIC, microtiter broth serial dilution test, erythromycin resistant S. pneumoniae. The conditions noted are these: read-out: MIC against erythromycin resistant strain of Streptococcus pneumoniae.
The next experiment concerns sensitive S. pyogenes. Briefly: MIC, microtiter broth serial dilution test, sensitive S. pyogenes. Particulars: Streptococcus pyogenes; sensitive strain; read-out: MIC against sensitive S. pyogenes.
Another experiment has as its system sensitive S. pneumoniae. Put plainly: MIC, microtiter broth serial dilution test, sensitive S. pneumoniae. Particulars: Streptococcus pneumoniae; sensitive strain; read-out: MIC against sensitive S. pneumoniae.

Structures can show the parent of a compound that is named as a salt. Where only a bound is given, the exact number is not on record here.

With `CC[C@H]1OC(=O)[C@H](C)[C@@H](O[C@H]2C[C@@](C)(OC)[C@@H](OCCNCCOCCOCCc3ccc4c(c3)c(=O)c(C(=O)O)cn4CC)[C@H](C)O2)[C@H](C)[C@@H](O[C@@H]2O[C@H](C)C[C@H](N(C)C)[C@H]2O)[C@](C)(OC)C[C@@H](C)C(=O)[C@H](C)[C@@H](O)[C@]1(C)O` [Example 18, 4″-O-{2-({2-[(2-{[2-(3-Carboxy-1-ethyl-4-oxo-1,4-dihydro-6-quinolinyl)ethyl]oxy}ethyl)oxy]ethyl}amino)ethyl}-6-O-methyl-erythromycin A formate], the MIC with M. catarrhalis was ≤ 1 µg/mL; in experiment [1], ≤ 0.25 µg/mL; in the experiment with E. faecalis it was ≤ 1 µg/mL; in experiment [2] it was ≤ 0.25 µg/mL; in the experiment with sensitive S. pyogenes, ≤ 0.125 µg/mL; with sensitive S. pneumoniae it was ≤ 0.125 µg/mL.
`CC[C@H]1OC(=O)[C@H](C)[C@@H](OC2C[C@@](C)(OC)[C@@H](OCCNCCOCCNc3cc4c(=O)c(C(=O)O)cn(C5CC5)c4cc3Cl)[C@H](C)O2)[C@H](C)[C@@H](O[C@@H]2O[C@H](C)C[C@H](N(C)C)[C@H]2O)[C@](C)(O)C[C@@H](C)CN(C)[C@H](C)[C@@H]2OC(=O)O[C@]12C` (stereo partly shown) [Example 3, 4″-O-(2-{2-[2-(3-Carboxy-7-chloro-1-cyclopropyl-4-oxo-1,4-dihydro-quinolin-6-ylamino)-ethoxy]-ethylamino}-ethyl)-azithromycin 11,12-cyclic carbonate]: the MIC in experiment [1] was ≤ 0.25 µg/mL; in the experiment on E. faecalis, ≤ 1 µg/mL; in experiment [2], ≤ 0.25 µg/mL; in the experiment with sensitive S. pyogenes, ≤ 0.125 µg/mL; in the experiment on sensitive S. pneumoniae, ≤ 0.125 µg/mL.
In the case of `CC[C@H]1OC(=O)[C@H](C)[C@@H](O[C@H]2C[C@@](C)(OC)[C@@H](OCCCOCCCOCCCc3ccc4c(c3)c(=O)c(C(=O)O)cn4C3CC3)[C@H](C)O2)[C@H](C)[C@@H](O[C@@H]2O[C@H](C)C[C@H](N(C)C)[C@H]2O)[C@](C)(O)C[C@@H](C)CN(C)[C@H](C)[C@@H](O)[C@]1(C)O` [Example 13, 4″-O-(3-{3-[3-(3-Carboxy-1-cyclopropyl-4-oxo-1,4-dihydro-quinolin-6-yl)-propoxy]-propoxy}-propyl)-azithromycin], the MIC in the experiment on M. catarrhalis was ≤ 1 µg/mL; in experiment [1], ≤ 0.25 µg/mL; in the experiment on E. faecalis, ≤ 1 µg/mL; in experiment [2], ≤ 0.25 µg/mL; in the experiment on sensitive S. pyogenes it was ≤ 0.125 µg/mL; with sensitive S. pneumoniae it was ≤ 0.125 µg/mL.
Consider `CC[C@H]1OC(=O)[C@H](C)[C@@H](OC2C[C@@](C)(OC)[C@@H](OCCNCCOCCOCCNc3cc4c(=O)c(C(=O)O)cn(C5CC5)c4cc3Cl)[C@H](C)O2)[C@H](C)[C@@H](O[C@@H]2O[C@H](C)C[C@H](N(C)C)[C@H]2O)[C@](C)(O)C[C@@H](C)CN(C)[C@H](C)[C@@H]2OC(=O)O[C@]12C` (stereo partly shown) [Example 2, 4″-O-[2-(2-{2-[2-(3-Carboxy-7-chloro-1-cyclopropyl-4-oxo-1,4-dihydro-quinolin-6-yl-amino)-ethoxy]-ethoxy}-ethylamino)-ethyl]-azithromycin 11,12-cyclic carbonate], for which the minimum inhibitory concentration (MIC) in experiment [1] was ≤ 0.25 µg/mL; in the experiment with E. faecalis, ≤ 1 µg/mL; in experiment [2], ≤ 0.25 µg/mL; in the experiment on sensitive S. pyogenes, ≤ 0.125 µg/mL; in the experiment on sensitive S. pneumoniae, ≤ 0.125 µg/mL.
In the case of `CC[C@H]1OC(=O)[C@H](C)[C@@H](O[C@H]2C[C@@](C)(OC)[C@@H](OCCCNC(=O)CCOCCOCCNc3cc4c(=O)c(C(=O)O)cn(C5CC5)c4cc3Cl)[C@H](C)O2)[C@H](C)[C@@H](O[C@@H]2O[C@H](C)C[C@H](N(C)C)[C@H]2O)[C@](C)(O)C[C@@H](C)CN(C)[C@H](C)[C@@H](O)[C@]1(C)O` [Example 11, 4″-O-[3-(3-{2-[2-(3-carboxy-7-chloro-1-cyclopropyl-4-oxo-1,4-dihydro-quinolin-6-ylamino)-ethoxy]-ethoxy}-propionylamino)-propyl]-azithromycin], the MIC was ≤ 0.25 µg/mL in experiment [1]; ≤ 1 µg/mL in the experiment on E. faecalis; ≤ 0.25 µg/mL in experiment [2]; ≤ 0.125 µg/mL in the experiment on sensitive S. pyogenes; ≤ 0.125 µg/mL with sensitive S. pneumoniae.
Regarding `CC[C@H]1OC(=O)[C@H](C)[C@@H](O[C@H]2C[C@@](C)(OC)[C@@H](OCCCOCCOCCCc3ccc4c(c3)c(=O)c(C(=O)O)cn4CC)[C@H](C)O2)[C@H](C)[C@@H](O[C@@H]2O[C@H](C)C[C@H](N(C)C)[C@H]2O)[C@](C)(O)C[C@@H](C)CN(C)[C@H](C)[C@@H](OC)[C@]1(C)O` [Example 8, 4″-O-(3-{2-[3-(3-Carboxy-1-ethyl-4-oxo-1,4-dihydro-quinolin-6-yl)-propoxy]-ethoxy}-propyl)-11-O-methyl azithromycin], the MIC with M. catarrhalis is ≤ 1 µg/mL; in experiment [1], ≤ 0.25 µg/mL; in experiment [2] it was ≤ 0.25 µg/mL.
`CC[C@H]1OC(=O)[C@H](C)[C@@H](O[C@H]2C[C@@](C)(OC)[C@@H](OCCN(C)CCOCCOCCc3ccc4c(c3)c(=O)c(C(=O)O)cn4CC)[C@H](C)O2)[C@H](C)[C@@H](O[C@@H]2O[C@H](C)C[C@H](N(C)C)[C@H]2O)[C@](C)(OC)C[C@@H](C)C(=O)[C@H](C)[C@@H](O)[C@]1(C)O` [Example 19, 4″-O-{2-({2-[(2-{[2-(3-Carboxy-1-ethyl-4-oxo-1,4-dihydro-6-quinolinyl)ethyl]oxy}ethyl)oxy]ethyl}methylamino)ethyl}-6-O-methyl-erythromycin A]: the MIC in the experiment on M. catarrhalis is ≤ 1 µg/mL; in experiment [1], ≤ 0.25 µg/mL; in the experiment on E. faecalis, ≤ 1 µg/mL; in experiment [2] it was ≤ 0.25 µg/mL; in the experiment with sensitive S. pyogenes, ≤ 0.125 µg/mL; in the experiment with sensitive S. pneumoniae, ≤ 0.125 µg/mL.
Regarding `CC[C@H]1OC(=O)[C@H](C)[C@@H](O[C@H]2C[C@@](C)(OC)[C@@H](OCCCNCCOCCCc3ccc4c(c3)c(=O)c(C(=O)O)cn4CC)[C@H](C)O2)[C@H](C)[C@@H](O[C@@H]2O[C@H](C)C[C@H](N(C)C)[C@H]2O)[C@](C)(O)C[C@@H](C)CN(C)[C@H](C)[C@@H](O)[C@]1(C)O` [Example 5, 4″-O-(3-{2-[3-(3-Carboxy-1-ethyl-4-oxo-1,4-dihydro-quinolin-6-yl)-propoxy]-ethylamnio}-propyl)-azithromycin], the MIC with M. catarrhalis is ≤ 1 µg/mL; in experiment [1], ≤ 0.25 µg/mL; with E. faecalis it was ≤ 1 µg/mL; in experiment [2], ≤ 0.25 µg/mL; with sensitive S. pyogenes, ≤ 0.125 µg/mL; in the experiment on sensitive S. pneumoniae, ≤ 0.125 µg/mL.
Regarding `CC[C@H]1OC(=O)[C@H](C)[C@@H](O[C@H]2C[C@@](C)(OC)[C@@H](OCCNCCOCCNc3cc4c(cc3F)c(=O)c(C(=O)O)cn4C3CC3)[C@H](C)O2)[C@H](C)[C@@H](O[C@@H]2O[C@H](C)C[C@H](N(C)C)[C@H]2O)[C@](C)(O)C[C@@H](C)CN(C)[C@H](C)[C@H]2OC(=O)O[C@@]21C` [Example 16, 4″-O-(2-{2-[2-(3-Carboxy-6-fluoro-1-cyclopropyl-4-oxo-1,4-dihydro-quinolin-7-ylamino)-ethoxy]-ethylamino}-ethyl)-azithromycin 11,12-cyclic carbonate], the MIC is ≤ 0.25 µg/mL in experiment [1]; ≤ 1 µg/mL in the experiment with E. faecalis; ≤ 0.25 µg/mL in experiment [2]; ≤ 0.125 µg/mL in the experiment on sensitive S. pyogenes; ≤ 0.125 µg/mL in the experiment with sensitive S. pneumoniae.
In the case of `CC[C@H]1OC(=O)[C@H](C)[C@@H](O[C@H]2C[C@@](C)(OC)[C@@H](OCCCNC(=O)CCOCCCc3ccc4c(c3)c(=O)c(C(=O)O)cn4N(C)C)[C@H](C)O2)[C@H](C)[C@@H](O[C@@H]2O[C@H](C)C[C@H](N(C)C)[C@H]2O)[C@](C)(OC)C[C@H](C)C(=O)[C@H](C)[C@@H](O)[C@]1(C)O` [Example 9, 4″-O-(3-{3-[3-(3-Carboxy-1-dimethylamino-4-oxo-1,4-dihydro-quinolin-6-yl)-propoxy]-propionylamino}-propyl)-6-O-methyl-erythromycin A], the MIC is ≤ 1 µg/mL in the experiment with M. catarrhalis; ≤ 0.25 µg/mL in experiment [1]; ≤ 1 µg/mL in the experiment with E. faecalis; ≤ 0.125 µg/mL with sensitive S. pyogenes; ≤ 0.125 µg/mL in the experiment with sensitive S. pneumoniae.
Turning to `CC[C@H]1OC(=O)[C@H](C)[C@@H](O[C@H]2C[C@@](C)(OC)[C@@H](OCCCOCCOCCCc3ccc4c(c3)c(=O)c(C(=O)O)cn4N(C)C)[C@H](C)O2)[C@H](C)[C@@H](O[C@@H]2O[C@H](C)C[C@H](N(C)C)[C@H]2O)[C@](C)(O)C[C@@H](C)CN(C)[C@H](C)[C@@H](O)[C@]1(C)O` [Example 15, 4″-O-(3-{2-[3-(3-Carboxy-1-dimethylamino-4-oxo-1,4-dihydro-quinolin-6-yl)-propoxy]-ethoxy}-propyl)-azithromycin], the MIC was ≤ 1 µg/mL in the experiment with M. catarrhalis; ≤ 0.25 µg/mL in experiment [1]; ≤ 1 µg/mL in the experiment with E. faecalis; ≤ 0.25 µg/mL in experiment [2]; ≤ 0.125 µg/mL in the experiment with sensitive S. pyogenes; ≤ 0.125 µg/mL with sensitive S. pneumoniae.
